Measurements: patent US12618095B2, “Medium for Bacillus cereus group detection” (SHIMADZU DIAGNOSTICS CORPORATION, priority 2020, dated 2026)

Assays:
Assay in all cases: Test Example 10: agar medium with aztreonam or ceftazidime
E. coli = format: cell-based; details: 22 hours; for Number of colonies: ATCC8739
B. cereus = details: 22 hours
E. amnigenus = details: 22 hours; for Number of colonies: ATCC33072
B. thuringiensis = details: NBRC101235, 22 hours

SMILES: C[C@H]1[C@H](NC(=O)/C(=N\OC(C)(C)C(=O)O)c2csc(N)n2)C(=O)N1S(=O)(=O)O [aztreonam]
- Number of colonies (E. coli; Aztreonam 0.05 mg, 10^1 cfu/mL): −
- Number of colonies (E. coli; Aztreonam 0.05 mg, 10^2 cfu/mL): −
- Number of colonies (E. coli; Aztreonam 0.05 mg, 10^3 cfu/mL): −
- Number of colonies (E. coli; Aztreonam 0.05 mg, 10^4 cfu/mL): −
- Number of colonies (E. coli; Aztreonam 0.05 mg, 10^5 cfu/mL): −
- Number of colonies (E. coli; Aztreonam 0.5 mg, 10^1 cfu/mL): −
- Number of colonies (E. coli; Aztreonam 0.5 mg, 10^2 cfu/mL): −
- Number of colonies (E. coli; Aztreonam 0.5 mg, 10^3 cfu/mL): −
- Number of colonies (E. coli; Aztreonam 0.5 mg, 10^4 cfu/mL): −
- Number of colonies (E. coli; Aztreonam 0.5 mg, 10^5 cfu/mL): −
- Number of colonies (E. coli; Aztreonam 5 mg, 10^1 cfu/mL): −
- Number of colonies (E. coli; Aztreonam 5 mg, 10^2 cfu/mL): −
- Number of colonies (E. coli; Aztreonam 5 mg, 10^3 cfu/mL): −
- Number of colonies (E. coli; Aztreonam 5 mg, 10^4 cfu/mL): −
- Number of colonies (E. coli; Aztreonam 5 mg, 10^5 cfu/mL): −
- formation of a white colony (E. coli; added to TSA-BC, 30° C.): suppressed
- Number of colonies (B. cereus; ATCC11778, Aztreonam 0.05 mg, 10^1 cfu/mL): 1
- Number of colonies (B. cereus; ATCC11778, Aztreonam 0.05 mg, 10^2 cfu/mL): 13
- Number of colonies (B. cereus; ATCC11778, Aztreonam 0.05 mg, 10^3 cfu/mL): +
- Number of colonies (B. cereus; ATCC11778, Aztreonam 0.05 mg, 10^4 cfu/mL): +
- Number of colonies (B. cereus; ATCC11778, Aztreonam 0.05 mg, 10^5 cfu/mL): +
- Number of colonies (B. cereus; ATCC11778, Aztreonam 0.5 mg, 10^1 cfu/mL): 1
- Number of colonies (B. cereus; ATCC11778, Aztreonam 0.5 mg, 10^2 cfu/mL): 12
- Number of colonies (B. cereus; ATCC11778, Aztreonam 0.5 mg, 10^3 cfu/mL): +
- Number of colonies (B. cereus; ATCC11778, Aztreonam 0.5 mg, 10^4 cfu/mL): +
- Number of colonies (B. cereus; ATCC11778, Aztreonam 0.5 mg, 10^5 cfu/mL): +
- Number of colonies (B. cereus; ATCC11778, Aztreonam 5 mg, 10^1 cfu/mL): 2
- Number of colonies (B. cereus; ATCC11778, Aztreonam 5 mg, 10^2 cfu/mL): 17
- Number of colonies (B. cereus; ATCC11778, Aztreonam 5 mg, 10^3 cfu/mL): +
- Number of colonies (B. cereus; ATCC11778, Aztreonam 5 mg, 10^4 cfu/mL): +
- Number of colonies (B. cereus; ATCC11778, Aztreonam 5 mg, 10^5 cfu/mL): +
- Number of colonies (B. cereus; ATCC19637, Aztreonam 0.05 mg, 10^1 cfu/mL): 3
- Number of colonies (B. cereus; ATCC19637, Aztreonam 0.05 mg, 10^2 cfu/mL): 2
- Number of colonies (B. cereus; ATCC19637, Aztreonam 0.05 mg, 10^3 cfu/mL): +
- Number of colonies (B. cereus; ATCC19637, Aztreonam 0.05 mg, 10^4 cfu/mL): +
- Number of colonies (B. cereus; ATCC19637, Aztreonam 0.05 mg, 10^5 cfu/mL): +
- Number of colonies (B. cereus; ATCC19637, Aztreonam 0.5 mg, 10^1 cfu/mL): 1
- Number of colonies (B. cereus; ATCC19637, Aztreonam 0.5 mg, 10^2 cfu/mL): 10
- Number of colonies (B. cereus; ATCC19637, Aztreonam 0.5 mg, 10^3 cfu/mL): +
- Number of colonies (B. cereus; ATCC19637, Aztreonam 0.5 mg, 10^4 cfu/mL): +
- Number of colonies (B. cereus; ATCC19637, Aztreonam 0.5 mg, 10^5 cfu/mL): +
- Number of colonies (B. cereus; ATCC19637, Aztreonam 5 mg, 10^1 cfu/mL): 1
- Number of colonies (B. cereus; ATCC19637, Aztreonam 5 mg, 10^2 cfu/mL): 5
- Number of colonies (B. cereus; ATCC19637, Aztreonam 5 mg, 10^3 cfu/mL): +
- Number of colonies (B. cereus; ATCC19637, Aztreonam 5 mg, 10^4 cfu/mL): +
- Number of colonies (B. cereus; ATCC19637, Aztreonam 5 mg, 10^5 cfu/mL): +
- Number of colonies (E. amnigenus; Aztreonam 0.05 mg, 10^1 cfu/mL): −
- Number of colonies (E. amnigenus; Aztreonam 0.05 mg, 10^2 cfu/mL): −
- Number of colonies (E. amnigenus; Aztreonam 0.05 mg, 10^3 cfu/mL): −
- Number of colonies (E. amnigenus; Aztreonam 0.05 mg, 10^4 cfu/mL): −
- Number of colonies (E. amnigenus; Aztreonam 0.05 mg, 10^5 cfu/mL): 2
- Number of colonies (E. amnigenus; Aztreonam 0.5 mg, 10^1 cfu/mL): −
- Number of colonies (E. amnigenus; Aztreonam 0.5 mg, 10^2 cfu/mL): −
- Number of colonies (E. amnigenus; Aztreonam 0.5 mg, 10^3 cfu/mL): −
- Number of colonies (E. amnigenus; Aztreonam 0.5 mg, 10^4 cfu/mL): −
- Number of colonies (E. amnigenus; Aztreonam 0.5 mg, 10^5 cfu/mL): −
- Number of colonies (E. amnigenus; Aztreonam 5 mg, 10^1 cfu/mL): −
- Number of colonies (E. amnigenus; Aztreonam 5 mg, 10^2 cfu/mL): −
- Number of colonies (E. amnigenus; Aztreonam 5 mg, 10^3 cfu/mL): −
- Number of colonies (E. amnigenus; Aztreonam 5 mg, 10^4 cfu/mL): −
- Number of colonies (E. amnigenus; Aztreonam 5 mg, 10^5 cfu/mL): −
- formation of a white colony (E. amnigenus; added to TSA-BC, 30° C.): suppressed
- Number of colonies (B. thuringiensis; Aztreonam 0.05 mg, 10^1 cfu/mL): 3
- Number of colonies (B. thuringiensis; Aztreonam 0.05 mg, 10^2 cfu/mL): 16
- Number of colonies (B. thuringiensis; Aztreonam 0.05 mg, 10^3 cfu/mL): +
- Number of colonies (B. thuringiensis; Aztreonam 0.05 mg, 10^4 cfu/mL): +
- Number of colonies (B. thuringiensis; Aztreonam 0.05 mg, 10^5 cfu/mL): +
- Number of colonies (B. thuringiensis; Aztreonam 0.5 mg, 10^1 cfu/mL): 1
- Number of colonies (B. thuringiensis; Aztreonam 0.5 mg, 10^2 cfu/mL): 13
- Number of colonies (B. thuringiensis; Aztreonam 0.5 mg, 10^3 cfu/mL): +
- Number of colonies (B. thuringiensis; Aztreonam 0.5 mg, 10^4 cfu/mL): +
- Number of colonies (B. thuringiensis; Aztreonam 0.5 mg, 10^5 cfu/mL): +
- Number of colonies (B. thuringiensis; Aztreonam 5 mg, 10^1 cfu/mL): 2
- Number of colonies (B. thuringiensis; Aztreonam 5 mg, 10^2 cfu/mL): 16
- Number of colonies (B. thuringiensis; Aztreonam 5 mg, 10^3 cfu/mL): +
- Number of colonies (B. thuringiensis; Aztreonam 5 mg, 10^4 cfu/mL): +
- Number of colonies (B. thuringiensis; Aztreonam 5 mg, 10^5 cfu/mL): +
